These results are taken from EPA's ToxValDB 9.5.

For one data set, the system named is Bibionidae. The note with it: chronic/long-term.
Another data set has as its system Cyprinodon variegatus. To be noted: chronic/long-term; duration: 90 days; development.
Another data set concerns Neomysis kadiakensis. To be noted: chronic/long-term; duration: 28 days; other.
The test system of another data set is Sus scrofa. The note with it: Not specified.
In a further data set the test system is Oryctolagus sp. To be noted: reproduction developmental.
Another data set deals with Pontoscolex corethrurus. To be noted: mortality; for LC50: acute.
Another data set deals with Bovidae. To be noted: subchronic; duration: 57 days; oral; diet; no effects.
The next data set deals with Phasianus sp. To be noted: acute; oral; unspecified; mortality.
Another data set relates to Ovis sp. To be noted: for LD50: acute, mortality.
Another data set has as its system Danio rerio. The note with it: acute; duration: 96 hours; mortality.
The next data set concerns Folsomia candida. To be noted: chronic/long-term; duration: 28 days; reproduction.
In a further data set the test system is Hypoaspis aculeifer. The note with it: chronic/long-term; duration: 14 days; mortality.
Another data set has as its system Daphnia magna. The note with it: for NOEC: chronic/long-term, duration: 21 days, reproduction.
A further data set deals with Lepomis macrochirus. The note with it: acute; duration: 96 hours; mortality.
The next data set concerns Pimephales promelas. To be noted: chronic/long-term.
The test system of the next data set is Apis mellifera. To be noted: acute, mortality.
Setting [1] is: short-term, oral, feed, mortality.

Structures are written as SMILES. Values after ≈ are worked out from the molar mass of the structure shown. Values joined by “and” are separate entries in the source; they are usually repeats but may differ in a detail not shown here. Identical values can stand only once.

For the molecule `Clc1ccc(C(c2ccc(Cl)cc2)C(Cl)Cl)cc1` [p,p'-DDD], the NOAEL with Anas platyrhynchos (not reported, other) was determined as 0.06 mg/kg-day.
Take `Fc1ccc(Oc2ccnc3cc(Cl)cc(Cl)c23)cc1` [Quinoxyfen]: the NOEC in the data set with Bibionidae (duration: 27 days) came to 0.128 mg/L; with Cyprinodon variegatus, 0.00409 mg/L; in the data set with Landoltia sp. (chronic/long-term, duration: 14 days), 0.149 mg/L; in the data set with Neomysis kadiakensis it was 0.00152 mg/L.
Regarding `C[C@H]1CCCC(=O)CCC/C=C/c2cc(O)cc(O)c2C(=O)O1` [Zearalenone], the NOEL in the data set with Sus scrofa (reproduction developmental, F, morphology) was 0.01 mg/kg-day.
For `C=CCOC(Cn1ccnc1)c1ccc(Cl)cc1Cl` (stereo unspecified) [Imazalil], the NOAEL in the data set with Oryctolagus sp. (food consumption) is 10 mg/kg-day; with Oryctolagus sp. (histopathology: nonneoplastic), 5 mg/kg-day.
In the case of `O=c1c(CO)c/c(=N/Nc2ccc(S(=O)(=O)[O-])c3ccccc23)c(=O)/c1=N/Nc1ccc(S(=O)(=O)[O-])c2ccccc12.[Na+].[Na+]` [Chocolate Brown HT], in the data set with Mus musculus (chronic, duration: 80 weeks, oral, diet, M/F, histopathology: nonneoplastic), the NOAEL was 143 mg/kg-day.
On to `C/C=C/C(=O)Oc1ccccc1[N+](=O)[O-].CCCCCCCC.O=NO` [Dinocap], for which the LD50 in the data set on Anas platyrhynchos (setting [1]) was 367 mg/kg-day; with Colinus virginianus (acute, oral, mortality), over 2150 mg/kg-day. Further, the NOAEL turned out to be 0.4 mg/kg-day in the data set with Canidae (chronic, duration: 2 years, oral, Dog Other, ophthalmoscopic examination) and 3 mg/kg-day in the data set with Oryctolagus sp. (oral). The molecule also returned an NOEL with Colinus virginianus (reproduction developmental, reproduction) of 27.5 mg/kg-day.
`ClC(Cl)=C(c1ccc(Cl)cc1)c1ccc(Cl)cc1` [p,p'-DDE]: in the data set with Anas platyrhynchos (reproductive, development), the LOAEL stood at 0.6 mg/kg-day.
`C/C=C(\C)C(=O)O` [2-Butenoic acid, 2-methyl-, (2E)-] returned an LC50 in the data set with Pontoscolex corethrurus of 2010 mg/kg.
Take `CSCCC(O)C(=O)[O-].CSCCC(O)C(=O)[O-].[Cu+2]` (stereo unspecified) [Copper, bis[2-(hydroxy-?O)-4-(methylthio)butanoato-?O]-]: the LEL was 45 mg/kg-day in the data set with Bovidae; 75 mg/kg-day with Gallus gallus (subchronic, duration: 8 weeks, oral, diet, clinical chemistry); 500 mg/kg-day with Gallus gallus (subchronic, duration: 35 days, oral, diet, M, other); 340 mg/kg-day in the data set on Sus scrofa (subchronic, duration: 42 days, oral, diet, body weight).
On to `CNC(=O)CSP(=O)(OC)OC` [Omethoate], for which the NOAEL in the data set with Canidae (chronic, duration: 12 months, oral, gavage, Dog Other, clinical chemistry) came to 0.025 mg/kg-day; in the data set on Rattus norvegicus (acute, oral, clinical signs), 0.2 mg/kg-day; with Rattus norvegicus (reproduction developmental, clinical chemistry) it was 0.03 mg/kg-day. The LD50 is 9.9 mg/kg with Colinus virginianus (acute, oral, mortality) and 29 mg/kg with Phasianus sp.. This molecule returned an LC50 in the data set on Rattus norvegicus (acute, duration: 4 hours, inhalation, mortality) of 0.287 µg/mL (≈ 1.35 µM). In the data set on Rattus norvegicus (chronic, duration: 2 years, clinical chemistry), this molecule showed an LOAEL of 0.04 mg/kg-day.
In the case of `CSCCC(O)C(=O)[O-].CSCCC(O)C(=O)[O-].[Mn+2]` (stereo unspecified) [Manganese, bis[2-(hydroxy-?O)-4-(methylthio)butanoato-?O]-], the LEL is 450 mg/kg-day in the data set with Bovidae; 450 mg/kg-day with Gallus gallus (subchronic, duration: 8 weeks, oral, diet, no effects); 150 mg/kg-day with Sus scrofa (subchronic, duration: 42 days, oral, diet, clinical chemistry).
For `Clc1ccc(C(c2ccccc2Cl)C(Cl)Cl)cc1` (stereo unspecified) [1-(2-Chlorophenyl)-1-(4-chlorophenyl)-2,2-dichloroethane], the LEL in the data set on Ovis sp. (subchronic, oral, diet, F, no effects) stood at 0.3 mg/kg-day.
Consider `C=C(C)[C@@H]1NC(=O)[C@@H](NC)[C@@H](O)c2cc(Cl)c(O)c(c2)O[C@](C)(CC)[C@@H](C(=O)N2CC=C[C@H]2C(=O)N/C(C(=O)N/C(=C/C(=O)O)C(=O)O)=C(\C)CC)NC1=O` [Phomopsin], for which the LD50 with Ovis sp. (injection, subcutaneous) was at least 0.017 mg/kg; in the data set with Ovis sp. (oral), 1.34 mg/kg; in the data set on Sus scrofa (acute, mortality), 0.848 mg/kg. Also, in the data set on Ovis sp. (subchronic, clinical chemistry), the LOAEL is 12.5 mg/kg-day.
As to `OO` [Hydrogen peroxide], in the data set with Mus musculus (subchronic, duration: 90 days, oral, drinking water, M/F, food consumption), the no observed adverse effect level (NOAEL) came to 100 mg/kg-day.
For `P` [Phosphine], the LC50 in the data set with Danio rerio was 0.048 µg/mL (≈ 1.41 µM). Also, the NOAEL stood at 1.1 mg/kg-day in the data set on Rattus norvegicus (chronic, duration: 2 years, inhalation); 1.9 mg/kg-day in the data set with Rattus norvegicus (reproduction developmental, inhalation, mortality); 1.1 mg/kg-day in the data set with Rattus norvegicus (subchronic, duration: 90 days, inhalation, mortality).
In turn, `C=C(C)[C@H]1CC=C(C)C(=O)C1` [d-Carvone] came in with an LC50 with Danio rerio of 56 µg/mL (≈ 373 µM). Further, the NOEC in the data set on Folsomia candida was 25 mg/kg; in the data set on Hypoaspis aculeifer it was at least 200 mg/kg; in the data set with Landoltia sp. (acute, duration: 192 hours, frond number), 4.6 mg/L. Besides, the LD50 in the data set on Rattus norvegicus (acute, oral, mortality) was over 2000 mg/kg-day. For the same molecule, in the data set on Rattus norvegicus (reproduction developmental, organ weight), the no-observed-adverse-effect level (NOAEL) amounted to 30 mg/kg-day.
For the molecule `CC/C=C\CCOC(C)OCC` (stereo not drawn) [Acetaldehyde ethyl cis-3-hexenyl acetal], the LC50 with Daphnia magna (acute, mortality) is 12 µg/mL (≈ 69.7 µM); in the data set with Pontoscolex corethrurus, 238 mg/kg.
The molecule `CC=Cc1ccc(OC)c(OC)c1` [4-Prop-1-enylveratrole] registered an NOAEL (repeat dose other) of 6 mg/kg-day and an NOAEL in the data set on Rattus norvegicus (short-term, duration: 28 days, oral, organ weight) of 100 mg/kg-day.
Turning to `C=C(C)C1CC=C(CO)CC1` (stereo unspecified) [4-Isopropenylcyclohex-1-en-1-ylmethanol], the LEL with Canidae (subchronic, duration: 90 days, Dog Other, no effects) turned out to be 120 mg/kg-day; in the data set on Rattus norvegicus (subchronic, duration: 90 days, oral, gavage, F, no effects) it was 120 mg/kg-day.
Regarding `COC(=O)c1ccccc1O` [Methyl salicylate], the NOAEL came to 50 mg/kg-day in the data set on Canidae (chronic, duration: 2 years, Dog Other) and 50 mg/kg-day in the data set with Rattus norvegicus (chronic, duration: 2 years, oral, growth).
Consider `[I-].[K+]` [Potassium iodide], for which the LEL was 5 mg/kg-day in the data set on Gallus gallus (repeat dose other, no effects) and 8 mg/kg-day in the data set on Sus scrofa (repeat dose other, no effects).
As to `c1nc[nH]n1` [1H-1,2,4-Triazole], the LC50 with Anas platyrhynchos (setting [1]) was over 1350 mg/kg-day; in the data set on Colinus virginianus (acute, oral, diet, mortality) it was over 1410 mg/kg-day. Moreover, the NOAEL in the data set on Oryctolagus sp. (body weight) is 30 mg/kg-day; with Rattus norvegicus (chronic, duration: 12 months, body weight) it was 6.9 mg/kg-day; in the data set with Rattus norvegicus (reproduction developmental), 17 mg/kg-day (2×) and 30 mg/kg-day (2×).
Molecule `CC(=O)Sc1cc(C)oc1C` [Ethanethioic acid, S-(2,5-dimethyl-3-furanyl) ester] came in with an NOAEL (subchronic, duration: 90 days) of 0.73 mg/kg-day and an NOAEL in the data set on Rattus norvegicus (subchronic, duration: 90 days) of 0.73 mg/kg-day.
Regarding `Cc1nc(N(C)C)nc(OC(=O)N(C)C)c1C` [Pirimicarb], the LD50 worked out at 20 mg/kg with Colinus virginianus (acute, duration: 2 hours, oral, gavage, M/F, mortality) and 370 mg/kg in the data set with Colinus virginianus (acute, oral, diet, mortality).
Molecule `CC(C)(c1ccc(O)cc1)c1ccc(O)cc1` [Bisphenol A] registered an NOAEL with Mus musculus (reproduction developmental, M/F, CD1, organ weight) of 5 mg/kg-day.
As for `Cc1cc(OC2OC(CO)C(O)C(O)C2O)ccc1C(=O)C(C)(C)NC(=O)c1sccc1C` (stereo unspecified), the NOAEL with Canidae (chronic, duration: 1 years, Dog Other, body weight) is 1.57 mg/kg-day; in the data set on Canidae (subchronic, duration: 90 days, oral, Dog Other, body weight) it was 5.34 mg/kg-day.
For the molecule `OC[C@H]1O[C@@H]2O[C@H]3[C@H](O)[C@@H](O)[C@@H](O[C@H]4[C@H](O)[C@@H](O)[C@@H](O[C@H]5[C@H](O)[C@@H](O)[C@@H](O[C@H]6[C@H](O)[C@@H](O)[C@@H](O[C@H]7[C@H](O)[C@@H](O)[C@@H](O[C@H]1[C@H](O)[C@H]2O)O[C@@H]7CO)O[C@@H]6CO)O[C@@H]5CO)O[C@@H]4CO)O[C@@H]3CO` [alpha-Cyclodextrin], in the data set on Canidae (subchronic, duration: 90 days, oral, diet, M/F, Beagle, no effects), the NOAEL stood at 10000 mg/kg-day.
As for `CCOc1cc(Oc2ccc(C(F)(F)F)cc2Cl)ccc1[N+](=O)[O-]` [Oxyfluorfen], the NOEC in the data set on Bibionidae (duration: 28 days, development) was 0.08 mg/L; with Daphnia magna it was 13 µg/L; in the data set with Landoltia sp. (acute, duration: 14 days, frond number), 0.00195 mg/L; in the data set with Pimephales promelas (duration: 34 days, reproduction) it was 38 µg/L. This molecule yielded an LC50 with Lepomis macrochirus of 0.21 µg/mL (≈ 0.581 µM).
Take `C[C@@H]1C/C=C/C=C/C=C/C=C/[C@H](O[C@@H]2O[C@H](C)[C@@H](O)[C@H](N)[C@@H]2O)C[C@@H]2O[C@](O)(C[C@@H](O)C[C@H]3O[C@@H]3/C=C/C(=O)O1)C[C@H](O)[C@H]2C(=O)O` [Natamycin]: the NOAEL stood at 6.25 mg/kg-day in the data set with Canidae (chronic, duration: 2 years, oral, diet, M/F, Beagle, body weight) and 22.4 mg/kg-day in the data set on Rattus norvegicus (chronic, duration: 2 years, oral, diet, growth).
Turning to `CC(C)(C)c1ccc(CSc2cnn(C(C)(C)C)c(=O)c2Cl)cc1` [Pyridaben], the NOEC in the data set with Anas platyrhynchos (chronic/long-term) came to 10 mg/kg-day; with Anas platyrhynchos (setting [1]), 659 mg/kg-day; in the data set with Rattus norvegicus (chronic, M, body weight) it was 3.2 mg/kg-day. This molecule also returned an LD50 with Colinus virginianus (acute, oral, mortality) of over 2250 mg/kg-day.
`[Al+3].[Na+].[O-][Si]([O-])([O-])[O-]` [Sodium aluminium silicate]: the LC50 in the data set on Danio rerio was over 100 µg/mL. Moreover, the NOEC came out at 10000 µg/L in the data set on Daphnia magna and 86700 µg/L in the data set on Pimephales promelas (duration: 30 days, growth).
Consider `CC1=C(/C=C/C(C)=C/C=C/C(C)=C/C=C/C=C(C)/C=C/C=C(C)/C=C/C2=C(C)C(=O)[C@@H](O)CC2(C)C)C(C)(C)C[C@H](O)C1=O` [3,3'-Dihydroxy-beta-carotene-4,4'-dione], for which the NOAEL with Mus musculus (chronic, duration: 80 weeks, oral, body weight) stood at 14 mg/kg-day.
Regarding `Oc1cccc(O)c1` [Resorcinol], the NOAEL in the data set with Mus musculus (chronic, duration: 104 weeks, clinical signs) was 36 mg/kg-day; with Rattus norvegicus (chronic, duration: 103 weeks, oral, gavage, Fischer 344, neurology) it was 36 mg/kg-day.
Regarding `CN1COCN(Cc2cnc(Cl)s2)/C1=N/[N+](=O)[O-]` [Thiamethoxam], the LD50 in the data set on Apis mellifera (dermal) was 0.024 µg/piece (2×) and 0.0121 µg/piece; in the data set on Apis mellifera (duration: 48 hours, oral, unspecified), 0.00631 µg/piece; in the data set on Apis mellifera (duration: 72 hours, dermal) it was 5.55 g/ha; in the data set on Apis mellifera (oral, unspecified) it was 0.005 µg/piece (3×) and 0.00936 µg/piece.
`O=C1[N-]S(=O)(=O)c2ccccc21.[Na+]` [Sodium saccharin] gave an NOEC with Pontoscolex corethrurus (reproductive, duration: 56 days) of 100 mg/kg.
